Legend:
[1] = test system: Vitis vinifera var. Monastrell albino line cells; assay: Elicitation of t-resveratrol production in grapevine cell suspension, Monastrell albino; type: cell-based; conditions: cyclodextrin 50 mmol/liter in medium (BETA 15 mmol/liter); 96 hours of incubation; kept in the dark
Procedure: (§1) Vitis vinifera var. Monastrell: Two grapevine cell lines of cultivar Monastrell, one established in the dark (albino line) and another established in the presence of white light (green line) from immature fruits have been used. All manipulations and incubations for the green line were carried out in lighting conditions, but for the albino line, incubations for callus generation, development, and growth, as well as incubations of cell suspensions, were performed in the dark. For this, immature grapes approximately 5 mm in diameter were superficially sterilized by immersion in a 7% calcium hypochlorite solution for 15 minutes. After this time, and always under sterile conditions, grapes were washed 3 times with sterile bidistilled water, their seeds removed, and were divided into 4 portions. These portions (explants) were deposited until microcalluses appeared in a Petri dish containing a solid culture medium based on the medium reported by Murashige and Skoog (Murashige, T and Skoog, F. 1962. “A revised medium for rapid growth and bioassays with tobacco tissue cultures”. Physiologia Plantarum 15:473-497), supplemented with Morel vitamins, casein hydrolysate (0.25 g/l), saccharose (30 g/l) as carbonated source, and α-nafthalenacetic acid (0.1 mg/l) and kinetin (0.2 mg/l) as hormones, 8 g/l of purified agar, and adjusted to pH 6. Finally, these microcalluses were transferred to 250 ml flasks containing 80 ml of this same solid culture medium for callus development. Cell suspensions were started, from friable calluses, in 250 ml flasks containing 80 ml of Gamborg B5 basal medium, supplemented with Morel vitamins, casein hydrolysate (0.25 g/l), saccharose (20 g/l) as carbonated source, and α-nafthalenacetic acid (0.1 mg/l) and kinetin (0.2 mg/l) as hormones, in the absence of agar. The cells in liquid medium were kept in an orbital shaker at 100 rpm and 25° C.; the green line was submitted to a photoperiod of 14 hours of light (6 W/m^2) and 10 h in the dark, whereas the albino line was kept in the dark at all times.
(§2) For each elicitation experience, 4 g of fresh weight of cells previously washed with fresh medium and filtered were taken under sterile conditions. These cells were transferred to 50 ml flasks and replaced by the addition of 10 ml of sterile fresh medium supplemented in each case with the cyclodextrins stated below:
(§3) The flasks were incubated under the same conditions as described above for time periods ranging from 24 and 96 hours.
(§4) Once the incubation time had been completed, the cells were separated from the medium by filtration by making a slight vacuum with the help of a water pump, and the cells and the filtrate were separately collected.
(§5) For this, an aliquot of the filtrate was diluted in fresh medium, filtered through a 0.2 μm Anopore filter, and 20 μl of filtrate were injected in a LiChrospher 100 RP-18 column (250×4 mm, particle size 5 μm). Two types of solvents were used as mobile phase: solvent A, 0.05% trifluoroacetic acid in water, and solvent B, 0.05% trifluoroacetic acid in methanol:acetonitrile 60:40 vol/vol. The sample is eluted at a flow rate of 1 ml/min of the following solvent mixture: 0 min, 10% B; 5 min, 15% B; 40 min, 35% B; 45 min, 65% B; 50 min, 65% B; 55 min, 10% B; and at a column temperature of 35° C. (Dalluge et al., 1998. J. Chromatogr. A 793:265-274). […] Gamay corresponding to the start of incubation and to 96 hours of incubation in a culture medium containing RAMEB.
(§6) For routine analysis of t-resveratrol, an aliquot of the filtrate was diluted with fresh medium and its ultraviolet absorption spectrum was recorded using a Kontron Uvikon 940 spectrophotometer taking as reference the fresh medium. The concentration of t-resveratrol in the supernatant was estimated using a molar extinction coefficient at 306 nm of 26,800 M^−1 cm^−1 (Siemann, E. H. and Creasy, L. L. 1992, “Concentration of the phytoalexin resveratrol in wine”, Am. J. Enol. Vitic. 43:49-52). […]

[2] = test system: Vitis vinifera var. Monastrell green line cells; assay: Elicitation of t-resveratrol production in grapevine cell suspension, Monastrell green; type: cell-based; conditions: cyclodextrin 50 mmol/liter in medium (BETA 15 mmol/liter); 96 hours of incubation; heavy presence of cis-resveratrol
Procedure: as §1, §2, §3, §4, §5, §6

[3] = test system: Vitis vinifera var. Gamay rouge cells; assay: Elicitation of t-resveratrol production in grapevine cell suspension, Gamay rouge; type: cell-based; conditions: cyclodextrin 50 mmol/liter in medium (BETA 15 mmol/liter); 96 hours of incubation; occasional presence of other unidentified phenolic products
Procedure: Vitis vinifera var. Gamay rouge: A grapevine cell line established by J. C. Pech in 1978 (ENSAT, Toulouse, France) from immature fruits of grapevine from the cultivar Gamay Fréaux has been used. The calluses were kept in 250 ml flasks containing 80 ml of Gamborg B5 basal medium (Gamborg et al. 1968. Experimental Cell Research 50:151-158) supplemented with Morel vitamins (Morel, G. 1970. “Le probléme de la transformation tumorale chez les végétaux”. Physiologie Végétale, 8:189-204), casein hydrolysate (0.25 g/l), saccharose (20 g/l) as carbonated source, and α-nafthalenacetic acid (0.1 mg/l) and kinetin (0.2 mg/l) as hormones (hereinafter, medium). This medium is adjusted to pH 6 and sterilized by applying humid heat (autoclave) for 20 min at a pressure of 121.2 kPa (1.2 athm), acquiring a solid consistency by the addition of purified agar (8 g/l) when the medium is cooled. Cell suspensions were started, from friable calluses obtained in the above described medium, in 250 ml flasks containing 80 ml of agar-free medium. The cells in liquid medium were kept in an orbital shaker at 100 rpm and 25° C., under a photoperiod of 14 hours of light (6 W/m^2) and 10 h in the dark.
as §2, §3, §4, §5
For routine analysis of t-resveratrol, an aliquot of the filtrate was diluted with fresh medium and its ultraviolet absorption spectrum was recorded using a Kontron Uvikon 940 spectrophotometer taking as reference the fresh medium. The concentration of t-resveratrol in the supernatant was estimated using a molar extinction coefficient at 306 nm of 26,800 M^−1 cm^−1 (Siemann, E. H. and Creasy, L. L. 1992, “Concentration of the phytoalexin resveratrol in wine”, Am. J. Enol. Vitic. 43:49-52). […] Gamay corresponding to the start of incubation and to 96 hours of incubation in a culture medium containing RAMEB.
The results obtained, expressed as mg of t-resveratrol per litre of filtrate, eliciting the cells with different cyclodextrins at concentrations of 50 mmol/litre of culture medium (except for BETA, for which the concentration corresponds to 15 mmol/litre due to its lower solubility), after 96 hours of incubation are given in Table 1.

[4] = test system: grapevine cell suspensions (Vitis vinifera var. Gamay); conditions: cited from earlier work
[5] = Solubility of t-resveratrol in an aqueous medium; type: physicochemical; conditions: 25° C., 5 days in the dark
Procedure: Five millilitres of a 11,410 mg/l solution of t-resveratrol (99% pure according to the supplier; Sigma, Madrid) in ethanol were placed in an spherical bottle, and ethanol was evaporated to dryness with a N2 current. Residual ethanol was eliminated by keeping the bottle under low pressure overnight. Five millilitres of aqueous medium were added to the solid residue, and the bottle was tightly closed and kept under shaking at 25° C. for 5 days in the dark. The resulting suspension was filtered through 0.2 μm Anopore filters, and the concentration of t-resveratrol in the filtrate was analyzed by UV spectroscopy.
The concentration of t-resveratrol in the filtrates, expressed as mg oft-resveratrol per litre of filtrate, is given in Table 2.

[6] = test system: crypt formation in aberrant colon; conditions: rat model treated with a carcinogenic agent (azoxymethane); cited from earlier work
[7] = test system: grapevine cells in suspension; assay: Effect of cyclodextrins on grapevine cells in suspension (overall comparison, toxicity); type: cell-based, Vitis vinifera; conditions: for Capacity to induce the synthesis of t-resveratrol compared with the other cyclodextrins tested: grapevine cells in suspension, 96 hours
Procedure: as §2, §3
It is also noted that the intensity of the effect depends on the variety and the cell line (greater production is seen in the albino Monastrell variety than in the green Monastrell variety).

Row | Molecule | Trans-Resveratrol (mg/l) in filtrate, Monastrell albino [1] [mg/L] | Trans-Resveratrol (mg/l) in filtrate, Monastrell green [2] [mg/L] | Trans-Resveratrol (mg/l) in filtrate, Gamay Rouge [3] [mg/L] | also measured
1 | OC[C@H]1O[C@@H]2O[C@H]3[C@H](O)[C@@H](O)[C@@H](O[C@H]4[C@H](O)[C@@H](O)[C@@H](O[C@H]5[C@H](O)[C@@H](O)[C@@H](O[C@H]6[C@H](O)[C@@H](O)[C@@H](O[C@H]7[C@H](O)[C@@H](O)[C@@H](O[C@H]8[C@H](O)[C@@H](O)[C@@H](O[C@H]1[C@H](O)[C@H]2O)O[C@@H]8CO)O[C@@H]7CO)O[C@@H]6CO)O[C@@H]5CO)O[C@@H]4CO)O[C@@H]3CO [BETA, β-cyclodextrin] | 60 | 0 | 30 | –
2 | COC[C@H]1O[C@@H]2O[C@H]3[C@H](O)[C@@H](OC)[C@@H](O[C@H]4[C@H](O)[C@@H](OC)[C@@H](O[C@H]5[C@H](O)[C@@H](OC)[C@@H](O[C@H]6[C@H](O)[C@@H](OC)[C@@H](O[C@H]7[C@H](O)[C@@H](OC)[C@@H](O[C@H]8[C@H](O)[C@@H](OC)[C@@H](O[C@H]1[C@H](O)[C@H]2OC)O[C@@H]8COC)O[C@@H]7COC)O[C@@H]6COC)O[C@@H]5COC)O[C@@H]4COC)O[C@@H]3COC [DIMEB, Heptakis (2,6-di-O-methyl)-β-cyclodextrin] | 4680 | 90 | 3060 | Ability to induce synthesis of t-resveratrol excreted into the culture medium [4]: induce
3 | OC[C@H]1O[C@H](O[C@H]2[C@H](O)[C@@H](O)[C@@H](OC[C@H]3O[C@@H]4O[C@H]5[C@H](O)[C@@H](O)[C@@H](O[C@H]6[C@H](O)[C@@H](O)[C@@H](O[C@H]7[C@H](O)[C@@H](O)C(O[C@H]8[C@H](O)[C@@H](O)[C@@H](O[C@H]9[C@H](O)[C@@H](O)[C@@H](O[C@H]%10[C@H](O)[C@@H](O)[C@@H](O[C@H]3[C@H](O)[C@H]4O)O[C@@H]%10CO)O[C@@H]9CO)O[C@@H]8CO)O[C@@H]7CO)O[C@@H]6CO)O[C@@H]5CO)O[C@@H]2CO)[C@H](O)[C@@H](O)[C@@H]1O [MALTOSYL, Maltosyl-β-cyclodextrin] | 660 | 20 | 390 | –
4 | Oc1ccc(/C=C/c2cc(O)cc(O)c2)cc1 [t-resveratrol, trans-3,5,4′-trihydroxystilbene] | – | – | – | Solubility of t-resveratrol ([5]; Culture medium supplemented with 6.55 mg/ml of CAVASOL ® W7 M): 767 mg t-resveratrol/liter filtrated; Solubility of t-resveratrol ([5]; Culture medium supplemented with 6.55 mg/ml of DIMEB): 735 mg t-resveratrol/liter filtrated; Solubility of t-resveratrol ([5]; Culture medium supplemented with 6.55 mg/ml of RAMEB): 786 mg t-resveratrol/liter filtrated; Solubility of t-resveratrol ([5]; Culture medium): 48.8 mg t-resveratrol/liter filtrated; Solubility of t-resveratrol ([5]; Ultrapure water): 36.5 mg t-resveratrol/liter filtrated; Inhibition of crypt formation in aberrant colon [6]: significant inhibition of crypt formation
5 | (2-hydroxy) propyl-β-cyclodextrin [HYPROB] | 4110 | 90 | 990 | –
6 | Randomly methylated β-cyclodextrin [CAVASOL ® W7 M] | 4963 | 92 | 3280 | Capacity to induce the synthesis of t-resveratrol compared with the other cyclodextrins tested [7]: greater capacity to induce the synthesis of t-resveratrol
7 | Randomly methylated β-cyclodextrin [RAMEB] | 5027 | 101 | 3320 | Capacity to induce the synthesis of t-resveratrol compared with the other cyclodextrins tested [7]: greater capacity to induce the synthesis of t-resveratrol
8 | sulphated β-cyclodextrin sodium salt [SULFOB] | 0 | 0 | 0 | Toxicity to grapevine cells in suspension ([7]; 50 mmol/liter in culture medium): toxic and kill the cells

From patent US7309591B2, “Method for the production of resveratrol in cell cultures” (Universidad de Alicante, priority 2002, dated 2007)
